From BindingDB's records for patent US11919896 (Zhuhai United Laboratories Co., 2024) come the findings set out here.

Common to all, as to experiment: In Vitro Test of Activities of Jak1, Jak2, Jak3, Tyk2 Kinases
Assay [1] deals with Non-receptor tyrosine-protein kinase TYK2 (Homo sapiens, UniProt P29597).
The target of assay [2] is Tyrosine-protein kinase JAK1 (Homo sapiens, UniProt P23458).
The target in assay [3] is Tyrosine-protein kinase JAK2 (Homo sapiens, UniProt O60674).
In assay [4] the target is T1, Tyrosine-protein kinase JAK3 (Homo sapiens, UniProt P52333).
T1 sequence (P52333 whole entry): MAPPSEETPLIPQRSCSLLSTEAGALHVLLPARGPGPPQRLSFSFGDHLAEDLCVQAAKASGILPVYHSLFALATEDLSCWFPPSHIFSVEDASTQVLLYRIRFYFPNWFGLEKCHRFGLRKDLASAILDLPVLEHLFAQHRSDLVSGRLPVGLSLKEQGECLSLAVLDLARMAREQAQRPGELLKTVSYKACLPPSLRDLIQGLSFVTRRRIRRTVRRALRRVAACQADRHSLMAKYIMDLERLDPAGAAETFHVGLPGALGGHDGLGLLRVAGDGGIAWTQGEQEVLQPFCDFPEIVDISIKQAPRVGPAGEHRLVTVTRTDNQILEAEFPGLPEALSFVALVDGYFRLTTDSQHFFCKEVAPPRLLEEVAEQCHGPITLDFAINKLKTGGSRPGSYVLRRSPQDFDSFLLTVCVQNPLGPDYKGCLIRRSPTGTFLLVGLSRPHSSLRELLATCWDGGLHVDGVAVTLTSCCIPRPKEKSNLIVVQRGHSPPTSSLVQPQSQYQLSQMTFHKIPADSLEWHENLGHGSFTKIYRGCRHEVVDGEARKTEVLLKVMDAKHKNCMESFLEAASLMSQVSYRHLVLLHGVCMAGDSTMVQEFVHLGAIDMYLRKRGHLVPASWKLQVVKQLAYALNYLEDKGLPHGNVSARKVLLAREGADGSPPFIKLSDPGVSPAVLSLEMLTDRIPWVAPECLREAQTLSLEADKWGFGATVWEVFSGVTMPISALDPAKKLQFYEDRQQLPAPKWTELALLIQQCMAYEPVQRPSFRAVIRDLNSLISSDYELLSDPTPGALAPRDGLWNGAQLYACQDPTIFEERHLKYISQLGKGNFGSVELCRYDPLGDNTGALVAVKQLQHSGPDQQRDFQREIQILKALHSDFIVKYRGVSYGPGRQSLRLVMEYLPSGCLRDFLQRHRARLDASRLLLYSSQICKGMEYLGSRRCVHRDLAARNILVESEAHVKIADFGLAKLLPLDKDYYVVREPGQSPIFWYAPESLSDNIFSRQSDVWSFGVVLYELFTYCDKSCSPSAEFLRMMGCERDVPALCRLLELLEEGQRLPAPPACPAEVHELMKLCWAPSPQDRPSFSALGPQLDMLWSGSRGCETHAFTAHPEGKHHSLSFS

The structures appear in SMILES notation.

Non-receptor tyrosine-protein kinase TYK2, sequence (P29597 whole entry): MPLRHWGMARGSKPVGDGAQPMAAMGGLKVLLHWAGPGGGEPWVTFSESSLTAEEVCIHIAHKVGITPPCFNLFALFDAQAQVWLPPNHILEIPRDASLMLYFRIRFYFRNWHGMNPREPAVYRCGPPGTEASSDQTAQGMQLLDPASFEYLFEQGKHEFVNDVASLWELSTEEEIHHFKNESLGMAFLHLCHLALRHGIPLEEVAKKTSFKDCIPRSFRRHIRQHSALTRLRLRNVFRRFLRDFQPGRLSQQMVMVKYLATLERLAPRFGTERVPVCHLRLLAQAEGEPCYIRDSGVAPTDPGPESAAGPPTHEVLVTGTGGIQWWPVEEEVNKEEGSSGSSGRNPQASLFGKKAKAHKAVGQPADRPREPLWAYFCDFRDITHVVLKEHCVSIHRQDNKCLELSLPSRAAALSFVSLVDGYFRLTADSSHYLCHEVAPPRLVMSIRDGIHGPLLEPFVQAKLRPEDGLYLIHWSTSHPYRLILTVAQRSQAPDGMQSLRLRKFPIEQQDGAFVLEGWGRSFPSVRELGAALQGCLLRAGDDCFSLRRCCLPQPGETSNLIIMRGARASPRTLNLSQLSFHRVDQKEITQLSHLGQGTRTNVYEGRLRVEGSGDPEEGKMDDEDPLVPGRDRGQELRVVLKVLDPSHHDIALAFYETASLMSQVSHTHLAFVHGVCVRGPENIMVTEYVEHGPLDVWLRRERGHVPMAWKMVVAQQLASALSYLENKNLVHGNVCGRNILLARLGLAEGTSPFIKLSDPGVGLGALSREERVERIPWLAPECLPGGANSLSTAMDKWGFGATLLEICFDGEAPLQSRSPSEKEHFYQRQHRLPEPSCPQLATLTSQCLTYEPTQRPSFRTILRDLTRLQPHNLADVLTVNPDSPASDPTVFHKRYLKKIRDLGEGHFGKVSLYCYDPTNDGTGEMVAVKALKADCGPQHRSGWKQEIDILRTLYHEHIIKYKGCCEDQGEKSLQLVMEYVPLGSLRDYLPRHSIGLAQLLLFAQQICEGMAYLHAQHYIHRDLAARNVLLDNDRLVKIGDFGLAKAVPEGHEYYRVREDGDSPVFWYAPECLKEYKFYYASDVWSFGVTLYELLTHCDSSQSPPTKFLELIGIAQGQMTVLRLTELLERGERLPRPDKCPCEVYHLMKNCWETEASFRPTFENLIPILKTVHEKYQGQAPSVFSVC
Tyrosine-protein kinase JAK1, sequence (P23458 whole entry): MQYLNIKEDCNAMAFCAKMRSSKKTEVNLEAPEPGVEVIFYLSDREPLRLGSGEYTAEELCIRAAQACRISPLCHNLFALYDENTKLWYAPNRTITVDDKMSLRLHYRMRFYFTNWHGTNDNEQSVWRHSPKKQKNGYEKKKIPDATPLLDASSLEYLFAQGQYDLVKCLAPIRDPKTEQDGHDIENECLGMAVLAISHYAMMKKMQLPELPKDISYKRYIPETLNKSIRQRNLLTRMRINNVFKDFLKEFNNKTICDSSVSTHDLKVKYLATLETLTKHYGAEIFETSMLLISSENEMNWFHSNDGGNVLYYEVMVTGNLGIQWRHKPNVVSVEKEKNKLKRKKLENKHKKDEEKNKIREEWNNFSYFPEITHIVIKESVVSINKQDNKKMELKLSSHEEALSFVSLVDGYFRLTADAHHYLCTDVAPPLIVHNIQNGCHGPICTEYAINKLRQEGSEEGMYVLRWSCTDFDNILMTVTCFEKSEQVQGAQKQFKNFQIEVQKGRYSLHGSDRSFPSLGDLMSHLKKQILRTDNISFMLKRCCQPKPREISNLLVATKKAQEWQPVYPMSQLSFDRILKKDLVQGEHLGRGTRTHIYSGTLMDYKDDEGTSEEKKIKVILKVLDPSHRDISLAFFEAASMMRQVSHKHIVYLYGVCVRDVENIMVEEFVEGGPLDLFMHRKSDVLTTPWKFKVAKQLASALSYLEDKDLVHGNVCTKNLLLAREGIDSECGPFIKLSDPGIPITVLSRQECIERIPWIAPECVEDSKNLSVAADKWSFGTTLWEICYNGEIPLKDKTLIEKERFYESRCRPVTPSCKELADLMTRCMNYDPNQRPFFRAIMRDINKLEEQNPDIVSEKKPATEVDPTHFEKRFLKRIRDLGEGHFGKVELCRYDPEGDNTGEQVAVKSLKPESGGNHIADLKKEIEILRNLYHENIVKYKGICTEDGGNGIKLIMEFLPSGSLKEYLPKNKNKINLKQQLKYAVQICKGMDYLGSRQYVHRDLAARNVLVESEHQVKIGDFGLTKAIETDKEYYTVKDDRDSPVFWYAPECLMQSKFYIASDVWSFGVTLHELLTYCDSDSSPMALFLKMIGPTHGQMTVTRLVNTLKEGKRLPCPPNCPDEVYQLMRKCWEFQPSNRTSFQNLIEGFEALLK
Tyrosine-protein kinase JAK2, sequence (O60674 whole entry): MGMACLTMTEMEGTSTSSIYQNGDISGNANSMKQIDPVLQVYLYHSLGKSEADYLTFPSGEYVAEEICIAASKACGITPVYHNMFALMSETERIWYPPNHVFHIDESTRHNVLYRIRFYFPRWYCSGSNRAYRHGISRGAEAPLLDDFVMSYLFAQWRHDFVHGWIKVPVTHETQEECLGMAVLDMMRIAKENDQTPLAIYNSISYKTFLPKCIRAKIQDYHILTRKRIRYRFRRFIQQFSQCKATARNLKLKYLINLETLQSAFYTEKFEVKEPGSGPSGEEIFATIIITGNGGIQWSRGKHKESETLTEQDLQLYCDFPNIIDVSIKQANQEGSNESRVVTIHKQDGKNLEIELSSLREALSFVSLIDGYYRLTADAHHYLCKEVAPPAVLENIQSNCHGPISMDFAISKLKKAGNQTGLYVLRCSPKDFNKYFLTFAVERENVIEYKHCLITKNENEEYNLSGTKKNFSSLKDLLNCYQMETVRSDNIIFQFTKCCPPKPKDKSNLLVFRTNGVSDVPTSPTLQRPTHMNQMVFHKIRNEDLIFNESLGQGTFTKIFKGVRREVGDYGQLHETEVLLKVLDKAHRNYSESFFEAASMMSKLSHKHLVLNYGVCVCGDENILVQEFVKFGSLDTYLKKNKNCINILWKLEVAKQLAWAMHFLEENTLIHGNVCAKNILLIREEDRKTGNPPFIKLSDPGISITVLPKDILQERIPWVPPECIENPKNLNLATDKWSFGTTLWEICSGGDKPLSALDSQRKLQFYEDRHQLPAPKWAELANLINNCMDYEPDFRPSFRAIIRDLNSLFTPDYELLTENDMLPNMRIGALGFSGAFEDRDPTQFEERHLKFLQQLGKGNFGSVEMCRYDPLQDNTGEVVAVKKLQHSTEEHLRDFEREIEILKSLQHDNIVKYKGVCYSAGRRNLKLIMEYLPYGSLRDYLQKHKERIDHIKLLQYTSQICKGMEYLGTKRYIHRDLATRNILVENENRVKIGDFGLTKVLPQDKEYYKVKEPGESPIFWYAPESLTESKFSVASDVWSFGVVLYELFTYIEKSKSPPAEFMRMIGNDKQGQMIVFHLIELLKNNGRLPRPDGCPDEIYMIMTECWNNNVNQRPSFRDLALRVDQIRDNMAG

As to `O=C(Nc1nc2cccc(C3(F)CCC4(CC3)CN(C(=O)CC(F)(F)F)C4)n2n1)C1CC1` [US11919896, Compound 4-7], the IC50 was 194 nM in assay [1], 436 nM in assay [2], 7690 nM in assay [3] and above 10000 nM in assay [4].

Regarding `O=C(Nc1nc2cccc(C3(F)CCC4(CC3)CN(C(=O)CC(F)F)C4)n2n1)C1CC1` [US11919896, Compound 4-8], the concentration for half-maximal inhibition (IC50) is above 10000 nM in assay [1], 244 nM in assay [2], 3710 nM in assay [3] and 364 nM in assay [4].

On to `O=C(Nc1nc2cccc(C3CCC4(CC3)CN(C(=O)C3(F)CC3)C4)n2n1)[C@H]1CC1(F)F` [US11919896, Compound 8-7], for which the half-maximal inhibitory concentration (IC50) in assay [1] was 1030 nM; in assay [2], 63 nM; in assay [3] it was 5460 nM; in assay [4], above 10000 nM.

As to `N#CCC(=O)N1CC2(CCC(c3cccc4nc(NC(=O)[C@H]5CC5(F)F)nn34)CC2)C1` [US11919896, Compound 8-8], the IC50 in assay [1] is 109 nM; in assay [2], 60 nM; in assay [3], 1380 nM; in assay [4], above 10000 nM.

Turning to `O=C(Nc1nc2cccc(C3CCC4(CC3)CN(C(=O)C3(F)CC3)C4)n2n1)[C@@H]1CC1(F)F` [US11919896, Compound 9-4], the IC50 in assay [1] is 1190 nM; in assay [2], 253 nM; in assay [3] it was 982 nM; in assay [4], above 10000 nM.

With `N#CCC(=O)N1CC2(CCC(c3cccc4nc(NC(=O)C5CC5(F)F)nn34)CC2)C1` (stereo not drawn) [US11919896, Compound 9-5], the IC50 in assay [1] amounted to 175 nM; in assay [2], 224 nM; in assay [3], 624 nM.

As usually defined, the IC50 is the point on the concentration scale where inhibition reaches its midpoint.
